Assay results published in patent US8987254B2, “Tetrahydropyrrolothiazine compounds” (Eli Lilly and Company, priority 2013, dated 2015).
Structures can show the parent of a compound that is named as a salt. Where two headings read alike, the source gives them in different places.

How the values were obtained:
[1] = test system: primary cortical neurons from PDAPP transgenic embryonic mice; assay: PDAPP Primary Neuronal Assay (Abeta ELISA); assay type: cell-based; conditions: Mus musculus, Primary cortical neuron, 24 h
Method: (§1) For in vitro enzymatic and cellular assays, test compounds are prepared in DMSO to make up a 10 mM stock solution. The stock solution is serially diluted in DMSO to obtain a ten-point dilution curve with final compound concentrations ranging from […] to 0.05 nM in a 96-well round-bottom plate before conducting the in vitro enzymatic and whole cell assays.
A confirmatory whole cell assay is also run in primary neuronal cultures generated from PDAPP transgenic embryonic mice. Primary cortical neurons are prepared from Embryonic Day 16 PDAPP embryos and cultured in 96 well plates (15×10^4 cells/well in DMEM/F12 (1:1) plus 10% FBS). After 2 days in vitro, culture media is replaced with serum free DMEM/F12 (1:1) containing B27 supplement and 2 μM (final) of Ara-C (Sigma, C1768). At day 5 in vitro, neurons are incubated at 37° C. for 24 h in the presence/absence of inhibitors (diluted in DMSO) at the desired concentration. At the end of the incubation, conditioned media are analyzed for evidence of beta-secretase activity, for example, by analysis of Abeta peptides. Total Abeta peptides (Abeta 1-x) are measured by a sandwich ELISA, using monoclonal 266 as a capture antibody and biotinylated 3D6 as reporting antibody. Alternatively, Abeta 1-40 and Abeta 1-42 peptides are measured by a sandwich ELISA, using monoclonal 2G3 as a capture antibody for Abeta 1-40, and monoclonal 21F12 as a capture antibody for Abeta 1-42. Both Abeta 1-40 and Abeta 1-42 ELISAs use biotinylated 3D6 as the reporting antibody. The concentration of Abeta released in the conditioned media following the compound treatment corresponds to the activity of BACE1 under such conditions. The 10-point inhibition curve is plotted and fitted with the four-parameter logistic equation to obtain the EC50 and IC50 values for the Abeta-lowering effect.

HEK293Swe cells = assay: HEK293Swe Whole Cell Assay (Abeta ELISA); assay type: cell-based; conditions: Homo sapiens
Method: as §1
In vitro Abeta reduction assays have been described in the literature (See Dovey, et al., Journal of Neurochemistry, 76, 173-181 (2001); Seubert, et al., Nature, 361, 260 (1993); and Johnson-Wood, et al., Proc. Natl. Acad. Sci. USA, 94, 1550-1555 (1997)).
At the end of the incubation, conditioned media are analyzed for evidence of beta-secretase activity, for example, by analysis of Abeta peptides. Total Abeta peptides (Abeta 1-x) are measured by a sandwich ELISA, using monoclonal 266 as a capture antibody and biotinylated 3D6 as reporting antibody. Alternatively, Abeta 1-40 and Abeta 1-42 peptides are measured by a sandwich ELISA, using monoclonal 2G3 as a capture antibody for Abeta 1-40, and monoclonal 21F12 as a capture antibody for Abeta 1-42. Both Abeta 1-40 and Abeta 1-42 ELISAs use biotinylated 3D6 as the reporting antibody. The concentration of Abeta released in the conditioned media following the compound treatment corresponds to the activity of BACE1 under such conditions. The 10-point inhibition curve is plotted and fitted with the four-parameter logistic equation to obtain the EC50 and IC50 values for the Abeta-lowering effect.

human BACE1(1-460):Fc = human BACE1(1-460):Fc (Homo sapiens (Human), UniProt P56817); assay: BACE1 FRET Assay; assay type: biochemical; conditions: purified recombinant huBACE1:Fc, FRET substrate, pH 4.6; Mean ± SEM
Chain of human BACE1(1-460):Fc (P56817 22-460): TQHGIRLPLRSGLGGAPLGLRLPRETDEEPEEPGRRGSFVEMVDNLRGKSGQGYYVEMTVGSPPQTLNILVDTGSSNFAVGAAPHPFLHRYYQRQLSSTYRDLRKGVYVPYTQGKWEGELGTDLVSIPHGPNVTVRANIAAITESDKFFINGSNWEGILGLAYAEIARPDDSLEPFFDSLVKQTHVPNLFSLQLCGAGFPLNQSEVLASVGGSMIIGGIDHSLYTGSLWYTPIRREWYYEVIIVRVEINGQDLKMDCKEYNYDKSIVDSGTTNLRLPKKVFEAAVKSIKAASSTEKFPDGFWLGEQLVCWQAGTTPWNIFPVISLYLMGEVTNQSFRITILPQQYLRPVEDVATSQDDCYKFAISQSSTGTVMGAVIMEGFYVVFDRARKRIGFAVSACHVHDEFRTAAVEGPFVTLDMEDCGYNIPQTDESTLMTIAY
Method: as §1
Human BACE1 (accession number: AF190725) is cloned from total brain cDNA by RT-PCR. The nucleotide sequences corresponding to amino acid sequences #1 to 460 are inserted into the cDNA encoding human IgG1 (Fc) polypeptide (Vassar et al. 1999). This fusion protein of BACE1(1-460) and human Fc, named huBACE1:Fc, is constructed into the pJB02 vector. Human BACE1(1-460):Fc (huBACE1:Fc) is transiently expressed in HEK293 cells. 250 μg cDNA of each construct is mixed with Fugene 6 and added to 1 liter HEK293 cells. Four days after the transfection, conditioned media are harvested for purification.
huBACE1:Fc is purified by Protein A chromatography. The enzyme is stored at −80° C. in small aliquots.
Serial dilutions of test compounds are prepared as described above. Compounds are further diluted 20× in KH2PO4 buffer. […] The content is mixed well on a plate shaker for 10 minutes. Fifteen μL of two hundred pM human BACE1(1-460):Fc (See Vasser, et al., Science, 286, 735-741 (1999)) in the KH2PO4 buffer is added to the plate containing substrate and test compounds to initiate the reaction. The RFU of the mixture at time 0 is recorded at excitation wavelength 355 nm and emission wavelength 460 nm, after brief mixing on a plate shaker. The reaction plate is covered with aluminum foil and kept in a dark humidified oven at room temperature for 16 to 24 h. The RFU at the end of incubation is recorded with the same excitation and emission settings used at time 0. The difference of the RFU at time 0 and the end of incubation is representative of the activity of BACE1 under the compound treatment. RFU differences are plotted versus inhibitor concentration and a curve is fitted with a four-parameter logistic equation to obtain the EC50 and IC50 values. (See Sinha, et al., Nature, 402, 537-540 […]).

PDAPP mice = assay: In Vivo Inhibition of Beta-Secretase (brain Abeta 1-x reduction); design: species or system mouse; conditions: for Abeta 1-x peptide levels reduced in brain cortex / Abeta 1-x peptide levels reduced in brain hippocampus: 3 hours after administration, compared to vehicle-treated mice
From the text: Several animal models, including mouse, guinea pig, dog, and monkey, may be used to screen for inhibition of beta-secretase activity in vivo following compound treatment. Animals used in this invention can be wild type, transgenic, or gene knockout animals. For example, the PDAPP mouse model, prepared as described in Games et al., Nature 373, 523-527 (1995), and other non-transgenic or gene knockout animals are useful to analyze in vivo inhibition of Abeta and sAPPbeta production in the presence of inhibitory compounds. Generally, 2 to 12 month old PDAPP mice, gene knockout mice or non-transgenic animals are administered compound formulated in vehicles, such as corn oil, cyclodextran, phosphate buffers, PHARMASOLVE®, or other suitable vehicles. One to twenty-four hours following the administration of compound, animals are sacrificed, and brains as well as cerebrospinal fluid and plasma are removed for analysis of Abetas, C99, and sAPP fragments. (See May, et al., Journal of Neuroscience, 31, 16507-16516 (2011)).
For standard in vivo pharmacology studies, animals are dosed with various concentrations of compound and compared to a vehicle-treated control group dosed at the same time. For some time course studies, brain tissue, plasma, or cerebrospinal fluid is obtained from selected animals, beginning at time 0 to establish a baseline. Compound or appropriate vehicle is administered to other groups and sacrificed at various times after dosing. Brain tissue, plasma, or cerebrospinal fluid is obtained from selected animals and analyzed for the presence of APP cleavage products, including Abeta peptides, sAPPbeta, and other APP fragments, for example, by specific sandwich ELISA assays. At the end of the test period, animals are sacrificed and brain tissues, plasma, or cerebrospinal fluid are analyzed for the presence of Abeta peptides, C99, and sAPPbeta, as appropriate. Brain tissues of APP transgenic animals may also be analyzed for the amount of beta-amyloid plaques following compound treatment. “Abeta 1-x peptide” as used herein refers to the sum of Abeta species that begin with residue 1 and ending with a C-terminus greater than residue 28. This detects the majority of Abeta species and is often called “total Abeta”.

[2] = Abeta 1-40, Mean ± SEM, read-out: PDAPP Neuron A-beta (1-40) ELISA IC50
[3] = Abeta 1-42, Mean ± SEM, read-out: PDAPP Neuron A-beta (1-42) ELISA IC50
[4] = HEK293, Abeta 1-40 in conditioned media, read-out: HEK 293 Swe A-beta (1-40) ELISA IC50
[5] = HEK293, Abeta 1-42 in conditioned media, read-out: HEK 293 Swe A-beta (1-42) ELISA IC50

SMILES | IC50 [1, 2] | IC50 [1, 3] | IC50 (HEK293Swe cells; [4]) | IC50 (HEK293Swe cells; [5]) | IC50 (human BACE1(1-460):Fc) | CNS penetration (PDAPP mice) | Abeta 1-x peptide levels reduced in brain cortex (PDAPP mice; 1 mg/kg oral dose) | Abeta 1-x peptide levels reduced in brain hippocampus (PDAPP mice; 1 mg/kg oral dose) | Abeta 1-x peptide levels reduced in brain cortex (PDAPP mice; 3 mg/kg oral dose) | Abeta 1-x peptide levels reduced in brain hippocampus (PDAPP mice; 3 mg/kg oral dose) | Abeta 1-x peptide levels reduced in brain cortex (PDAPP mice; 10 mg/kg oral dose) | Abeta 1-x peptide levels reduced in brain hippocampus (PDAPP mice; 10 mg/kg oral dose)
COc1cnc(C(=O)Nc2ccc(F)c([C@]34CN(c5ncc(F)cn5)C[C@H]3CSC(N)=N4)c2)cn1 [Example 4, N-[3-[(4aR,7aS)-2-Amino-6-(5-fluoropyrimidin-2-yl)-4,4a,5,7-tetrahydropyrrolo[3,4-d][1,3]thiazin-7a-yl]-4-fluoro-phenyl]-5-methoxy-pyrazine-2-carboxamide hydrochloride] | 0.134 nM | 0.131 nM |  |  |  |  |  |  |  |  |  | 
COc1cnc(C(=O)Nc2cccc([C@]34CN(c5ncc(F)cn5)C[C@H]3CSC(N)=N4)c2)cn1 [Example 2, N-{3-[(4aR,7aS)-2-Amino-6-(5-fluoropyrimidin-2-yl)-4a,5,6,7-tetrahydropyrrolo[3,4-d][1,3]thiazin-7a(4H)-yl]phenyl}-5-methoxypyrazine-2-carboxamide hydrochloride] | 0.244 nM | 1.22 nM | 0.324 nM | 0.289 nM | 0.482 nM |  |  |  |  |  |  | 
NC1=N[C@@]2(c3cccc(NC(=O)c4ncc(F)cc4F)c3)CN(c3ncc(F)cn3)C[C@H]2CS1 [Example 6, N-[3-[(4aR,7aS)-2-Amino-6-(5-fluoropyrimidin-2-yl)-4,4a,5,7-tetrahydropyrrolo[3,4-d][1,3]thiazin-7a-yl]phenyl]-3,5-difluoro-pyridine-2-carboxamide hydrochloride] | 0.279 nM | 0.308 nM | 0.22 nM | 0.211 nM | 0.739 nM |  |  |  |  |  |  | 
NC1=N[C@@]2(c3cc(NC(=O)c4ncc(F)cc4F)ccc3F)CN(c3ncc(F)cn3)C[C@H]2CS1 [Example 8, N-[3-[(4aR,7aS)-2-Amino-6-(5-fluoropyrimidin-2-yl)-4,4a,5,7-tetrahydropyrrolo[3,4-d][1,3]thiazin-7a-yl]-4-fluoro-phenyl]-3,5-difluoro-pyridine-2-carboxamide hydrochloride] | 0.285 nM | 0.29 nM |  |  |  |  |  |  |  |  |  | 
N#Cc1ccc(C(=O)Nc2cccc([C@]34CN(c5ncc(F)cn5)C[C@H]3CSC(N)=N4)c2)nc1 [Example 5, N-[3-[(4aR,7aS)-2-Amino-6-(5-fluoropyrimidin-2-yl)-4,4a,5,7-tetrahydropyrrolo[3,4-d][1,3]thiazin-7a-yl]phenyl]-5-cyano-pyridine-2-carboxamide hydrochloride] | 0.132 nM | 0.0813 nM | 0.0887 nM | 0.0785 nM | 0.45 nM |  |  |  |  |  |  | 
Cl.NC1=N[C@@]2(c3cccc(NC(=O)c4ccc(F)cn4)c3)CN(c3ncc(F)cn3)C[C@H]2CS1 [Example 1, N-{3-[(4aR,7aS)-2-Amino-6-(5-fluoropyrimidin-2-yl)-4a,5,6,7-tetrahydropyrrolo[3,4-d][1,3]thiazin-7a(4H)-yl]phenyl}-5-fluoropyridine-2-carboxamide hydrochloride] | 0.487 nM | 0.591 nM | 0.619 nM | 0.437 nM | 0.61 nM | demonstrate CNS penetration | approximately 43% | approximately 34% | ~59% | ~48% | ~66% | ~53%
N#Cc1ccc(C(=O)Nc2ccc(F)c([C@]34CN(c5ncc(F)cn5)C[C@H]3CSC(N)=N4)c2)nc1 [Example 7, N-[3-[(4aR,7aS)-2-Amino-6-(5-fluoropyrimidin-2-yl)-4,4a,5,7-tetrahydropyrrolo[3,4-d][1,3]thiazin-7a-yl]-4-fluoro-phenyl]-5-cyano-pyridine-2-carboxamide hydrochloride] | 0.0873 nM | 0.0649 nM |  |  | 0.358 nM |  |  |  |  |  |  | 
Cl.NC1=N[C@@]2(c3cc(NC(=O)c4ccc(F)cn4)ccc3F)CN(c3ncc(F)cn3)C[C@H]2CS1 [Example 3, N-[3-[(4aR,7aS)-2-Amino-6-(5-fluoropyrimidin-2-yl)-4,4a,5,7-tetrahydropyrrolo[3,4-d][1,3]thiazin-7a-yl]-4-fluoro-phenyl]-5-fluoro-pyridine-2-carboxamide hydrochloride] | 0.309 nM | 0.184 nM | 1.26 nM | 0.299 nM |  | demonstrate CNS penetration | approximately 34% | approximately 38% | ~53% | ~50% |  | 
